{"source": "patent US20140248212A1", "about": "“NON-IMMUNOGENIC POSITRON EMISSION TOMOGRAPHY REPORTER GENE SYSTEMS” (THE REGENTS OF THE UNIVERSITY OF CALIFORNIA, priority 2011, published 2014)", "key": {"[1]": {"settings": "accumulation in liver, small intestine, kidneys, urinary bladder only; cited from earlier work"}, "thymidine kinase 2 (TK2)": {"target": "T1, thymidine kinase 2 (TK2) (Homo sapiens, UniProt O00142)", "T1 sequence (O00142 34-265)": "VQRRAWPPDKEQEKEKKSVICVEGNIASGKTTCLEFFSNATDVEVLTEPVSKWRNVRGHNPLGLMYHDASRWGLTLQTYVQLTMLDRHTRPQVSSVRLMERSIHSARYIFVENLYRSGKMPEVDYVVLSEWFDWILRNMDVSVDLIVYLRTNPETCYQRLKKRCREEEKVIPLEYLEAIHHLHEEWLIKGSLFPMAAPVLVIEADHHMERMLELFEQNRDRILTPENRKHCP", "settings": "cited from earlier work"}, "WT TK2 [2]": {"system": "WT TK2", "settings": "reported by Ponomarev et al. 2007; cited from earlier work"}, "TK2-N93D/L109F": {"target": "T2, TK2-N93D/L109F (Homo sapiens, UniProt O00142, L109F/N93D)", "T2 construct": "hexahistidine (N, cleaved yes); SUMO (N, cleaved yes); made in house; host or cells: Escherichia coli BL21 (DE3) C41, modified pET14b", "T2 sequence (O00142 51-265 N93D/L109F)": "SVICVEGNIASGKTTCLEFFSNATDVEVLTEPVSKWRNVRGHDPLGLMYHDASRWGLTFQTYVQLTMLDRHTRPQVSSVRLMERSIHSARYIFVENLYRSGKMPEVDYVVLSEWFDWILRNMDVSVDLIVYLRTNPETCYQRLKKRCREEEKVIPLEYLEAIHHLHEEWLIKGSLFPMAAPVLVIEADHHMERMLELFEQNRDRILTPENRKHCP", "assay": "Kinetic analyses of recombinant TK2 (NADH-dependent enzyme coupled assay), TK2-N93D/L109F", "format": "biochemical", "settings": "37° C., 1 mM ATP", "method": "FIG. 34 provides a table that illustrates the kinetics of the phosphorylation of D and L-nucleosides by the TK2 mutants. Kinase assays were performed with recombinant protein with 200 μM of the listed substrate."}, "WT TK2 [3]": {"target": "T3, WT TK2 (Homo sapiens, UniProt O00142)", "T3 construct": "hexahistidine (N, cleaved yes); SUMO (N, cleaved yes); made in house; host or cells: Escherichia coli BL21 (DE3) C41, modified pET14b", "T3 sequence (O00142 51-265)": "T2 sequence (O00142 51-265 N93D/L109F) with D43N, F59L", "assay": "Kinetic analyses of recombinant TK2 (NADH-dependent enzyme coupled assay), WT TK2", "format": "biochemical", "settings": "37° C., 1 mM ATP"}, "[4]": {"target": "deoxycytidine kinase (dCK) (Homo sapiens, UniProt P27707)", "sequence (P27707 whole entry)": "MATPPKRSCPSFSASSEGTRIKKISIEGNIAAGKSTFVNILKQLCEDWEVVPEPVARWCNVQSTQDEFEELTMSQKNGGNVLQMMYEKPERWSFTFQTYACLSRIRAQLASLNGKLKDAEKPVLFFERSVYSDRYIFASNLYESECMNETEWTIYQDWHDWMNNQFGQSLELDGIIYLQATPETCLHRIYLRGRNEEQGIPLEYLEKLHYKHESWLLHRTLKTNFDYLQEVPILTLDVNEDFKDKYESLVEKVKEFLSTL", "settings": "cited from earlier work"}, "TK2-L109F": {"target": "T4, TK2-L109F (Homo sapiens, UniProt O00142, L109F)", "T4 sequence (O00142 51-265 L109F)": "T2 sequence (O00142 51-265 N93D/L109F) with D43N", "assay": "Kinetic analyses of recombinant TK2 (NADH-dependent enzyme coupled assay), TK2-L109F", "settings": "37° C., 1 mM ATP", "procedure": "(§4) A NADH-dependent enzyme coupled assay (see, e.g. Agarwal, K. C., et al. (1978) Methods Enzymol. 51, 483-490) was used. Using a Cary UV spectrophotometer, measurements were made in triplicate at 37° C. in a buffer containing 100 mM Tris, pH 7.5, 100 mM KCl, 5 mM MgCl2, and 1 mM ATP. For data in which kobs is given, a single nucleoside concentration of 200 μM was used. For data in which both Km and kcat are given, the nucleoside concentration was varied between 15 and 500 μM. TK2 concentration in the cuvette was 400 nM. Data were fit to the Michaelis-Menten equation using SigmaPlot. […] Therefore, all of the kinetic data using the Michaelis-Menten equation without the Hill coefficient is presented."}, "TK2-N93D": {"target": "T5, TK2-N93D (Homo sapiens, UniProt O00142, N93D)", "T5 sequence (O00142 51-265 N93D)": "T2 sequence (O00142 51-265 N93D/L109F) with F59L", "assay": "Kinetic analyses of recombinant TK2 (NADH-dependent enzyme coupled assay), TK2-N93D", "settings": "37° C., 1 mM ATP", "procedure": "as §4"}, "[5]": {"system": "L1210 tumors expressing TK2-N93D", "assay": "microPET/CT of SCID mice bearing L1210-PRG tumors (TK2-N93D)", "format": "in vivo", "settings": "3 hrs post-injection, FIG. 10D", "excerpt": "(§1) To compare TK2, TK2-N93D and HSV1-sr39tk in vivo, PRG-expressing L1210 cells were implanted subcutaneously in SCID mice that were then scanned with L-[^18F]FMAU (FIG. 10A) and [^18F]FHBG (FIG. 10C) on consecutive days. […] Signals obtained with sr39tk were slightly higher than those obtained with the human TK2-N93D PRG (the difference was not statistically significant). […] L-[^18F]FMAU accumulation in TK2-N93D transduced tumors was ˜20 times higher than the accumulation in tumors transduced with the control (eYFP only) vector. While this ratio is higher than the 6.67 ratio reported for WT TK2 as a PRG with D-[^18F]FEAU as the PRP (see, e.g. Ponomarev, V., et al. J Nucl Med 48:819-826, 2007), the HSV1-sr39tk/[^18F]FHBG combination still outperforms the TK2-N93D/L-[^18F]FMAU combination by ˜2-fold. The significance of the 2-fold difference for the sensitivity of the new TK2-N93D PRG can be further investigated in the animal models discussed below (see, e.g. Gerth, M. L., et al. Biochem Biophys Res Commun 354:802-807, 2007; Liu, L., et al. Nucleic Acids Res 37:4472-4481, 2009; Iyidogan, P., et al. Biochemistry 47:4711-4720, 2008; Lutz, S., et al. Chimia (Aarau) 63:737-744 2009).\n(§2) Animal studies were approved and carried out according to specific guidelines. C57/BL6 mice were injected with the indicated probe and underwent micro-PET/CT analyses at 1- and 3-h post probe injection (Inveon, Siemens Medical Solutions USA Inc.; microCAT; Imtek Inc.). For tumor imaging studies, SCID mice were injected subcutaneously on day −7 in the right and left flanks with 1×10^6 L1210-PRG-expressing cells in 50% v/v phosphate-buffered saline and 50% v/v Matrigel™ (BD Biosciences). For imaging experiments, mice were kept warm and under gas anesthesia (2% v/v isoflurane) and were injected intravenously with 200 μCi of ^18F-labeled probes. A 3-h interval was allowed between probe administration and microPET/CT scanning Static microPET images were acquired for 600 s. Image data were evaluated in three-dimensional histograms and reconstructed with a zoom factor of 2.1 using three-dimensional ordered set expectation maximization (OSEM) with 2 iterations followed by MAP (maximum a posteriori) reconstruction with 18 iterations (beta=0.1). Images were analyzed using OsiriX Imaging Software Version 3.8."}, "[6]": {"system": "L1210 tumors expressing WT TK2", "assay": "microPET/CT of SCID mice bearing L1210-PRG tumors (WT TK2)", "format": "in vivo", "settings": "3 hrs post-injection, FIG. 10D", "excerpt": "as §1, with “The significance of the 2-fold difference for the sensitivity of the new TK2-N93D PRG can be further investigated in the animal models discussed below (see, e.g. Gerth, M. L., et al. Biochem Biophys Res Commun 354:802-807, 2007; Liu, L., et al. Nucleic Acids Res 37:4472-4481, 2009; Iyidogan, P., et al. Biochemistry 47:4711-4720, 2008; Lutz, S., et al. Chimia (Aarau) 63:737-744 2009).” left out\n(§3) Animal studies were approved and carried out according to specific guidelines. […] Image data were evaluated in three-dimensional histograms and reconstructed with a zoom factor of 2.1 using three-dimensional ordered set expectation maximization (OSEM) with 2 iterations followed by MAP (maximum a posteriori) reconstruction with 18 iterations (beta=0.1). Images were analyzed using OsiriX Imaging Software Version 3.8."}, "[7]": {"system": "L1210 tumors expressing HSV1-sr39tk", "assay": "microPET/CT of SCID mice bearing L1210-PRG tumors (HSV1-sr39tk)", "format": "in vivo", "excerpt": "as §1, with “The significance of the 2-fold difference for the sensitivity of the new TK2-N93D PRG can be further investigated in the animal models discussed below (see, e.g. Gerth, M. L., et al. Biochem Biophys Res Commun 354:802-807, 2007; Liu, L., et al. Nucleic Acids Res 37:4472-4481, 2009; Iyidogan, P., et al. Biochemistry 47:4711-4720, 2008; Lutz, S., et al. Chimia (Aarau) 63:737-744 2009).” left out\nas §3, with “3.8. […]” for “3.8.”"}, "[8]": {"assay": "Biodistribution of PET reporter probes in mice (microPET/CT)", "format": "in vivo, C57/BL6 mice", "method": "To identify candidate PRPs, eight nucleoside analogs (FIG. 7A) were synthesized that were amenable to ^18F labeling (the first criterion for PRPs). To identify PRP candidates with rapid clearance from normal tissues and low overall background (second criterion for PRGs), biodistribution studies in mice were performed. It was observed that natural (D) nucleosides had higher background than non-natural (L) nucleoside analogs. […] The next step was to identify a human nucleoside kinase that phosphorylates L-[^18F]FMAU and L-[^18F]FEAU, and can be converted into a new PRG that matches four criteria:\nInitially, a group of nucleoside analogs amenable to fluorine-18 labeling were identified. These PET tracers, 5 of which were novel, were then screened to determine their biodistribution in C57/BL6 mice (n=3 for each PET tracer) through dynamic microPET scans. […] Rational design is utilized to introduce mutations into human nucleoside kinase thymidine kinase 2 (TK2) to improve the affinity of the kinase for the top candidate probe. The sensitivity and specificity of the novel PET reporter probe/gene pair was then determined in vitro and in vivo using a murine cancer model.\nas §2"}, "[9]": {"assay": "Human whole-body PET/CT biodistribution of PET reporter probes", "format": "in vivo", "excerpt": "All studies involving human volunteers were approved. A healthy person and a healthy volunteer were recruited for the L-^18F-FMAU biodistribution study. Each volunteer received a bolus intravenous injection of ˜56 MBq (1.5 mCi) sterile L-^18F-FMAU and had four consecutive whole-body (starting from just above the head to above the knees, 6 bed positions, 5-min scan at each bed position) PET scans (Biograph 64, Siemens), with the first scan starting shortly after intravenous injection of L-^18F-FMAU. A low dose CT scan was also obtained for attenuation correction. Volunteers urinated after all scans had been performed. The region of interest analysis was performed to measure mean standard uptake values of L-^18F-FMAU in major organs/tissues. To illustrate the biodistribution of ^18F-FHBG, unpublished scan from a previous study (see, e.g. Yaghoubi, S. S., et al. (2009) Nat. Clin. Pract. Oncol. 6, 53-58) was used."}}, "note": "Numbering of substitutions follows the chain as printed. “Also recorded” adds a separate entry of the source.", "data": [{"molecule": "CCc1cn([C@@H]2O[C@H](CO)[C@@H](O)[C@@H]2F)c(=O)[nH]c1=O", "note": "[D-[^18F]FEAU, 2′-deoxy-2′-^18F-5-ethyl-1-β-D-arabinofuranosyluracil]", "values": [{"measurement": "biodistribution as a candidate PRP", "setting": "[1]", "result": "favorable biodistribution"}, {"measurement": "activity of kinase towards nucleoside analog", "setting": "thymidine kinase 2 (TK2)", "result": "active towards L-FMAU, D-"}, {"measurement": "ratio of accumulation, PRG versus control", "setting": "WT TK2 [2]", "result": 6.67}]}, {"molecule": "Cc1cn([C@H]2O[C@@H](CO)[C@H](O)[C@H]2F)c(=O)[nH]c1=O", "note": "[L-FMAU]", "values": [{"measurement": "increase of kcat compared with TK2", "setting": "TK2-N93D/L109F", "result": 100, "unit": "%"}, {"measurement": "kcat (L-FMAU)/kcat (D-dT) ratio", "setting": "TK2-N93D/L109F", "result": 14.9}, {"measurement": "kcat (L-FMAU)/kcat (D-dT) ratio, higher than that for TK2", "setting": "TK2-N93D/L109F", "result": 4, "unit": "fold"}, {"measurement": "kcat (L-FMAU)/kcat (D-dT) ratio, higher than that for TK2-N93D", "setting": "TK2-N93D/L109F", "result": "~40", "unit": "%"}, {"measurement": "kcat (L-FMAU)/kcat (D-dT) ratio", "setting": "WT TK2 [3]", "result": 3.7}, {"measurement": "activity of kinase towards nucleoside analog", "setting": "thymidine kinase 2 (TK2)", "result": "substrate for human TK2; also recorded: active towards L-FMAU, D-"}, {"measurement": "activity of kinase towards nucleoside analog", "setting": "[4]", "result": "Very low activity with L-FMAU"}, {"measurement": "kcat (L-FMAU)/kcat (D-dT) ratio", "setting": "TK2-L109F", "result": 2.4}, {"measurement": "decrease of kcat relative to WT TK2", "setting": "TK2-N93D", "result": 32, "unit": "%"}, {"measurement": "increase of kcat/Km compared with WT TK2", "setting": "TK2-N93D", "result": 77, "unit": "%"}, {"measurement": "kcat (L-FMAU)/kcat (D-dT) ratio compared with wild type", "setting": "TK2-N93D", "result": "nearly triples"}]}, {"molecule": "Nc1nc2c(ncn2CCC(CO)C[18F])c(=O)[nH]1", "note": "(stereo not drawn) [^18F-FHBG, 9-[4-[^18F]fluoro-3-(hydroxymethyl)butyl]guanine, reference compound]", "values": [{"measurement": "[18F]FHBG accumulation in tumors", "setting": "[5]", "result": "Neither WT TK2 nor TK2-N93D expressing tumors accumulated detectable amounts"}, {"measurement": "[18F]FHBG accumulation in tumors", "setting": "[6]", "result": "Neither WT TK2 nor TK2-N93D expressing tumors accumulated detectable amounts"}, {"measurement": "probe uptake in L1210 tumors", "setting": "[7]; 18F-FHBG, 3 h post-injection", "result": "24.1±6.2", "unit": "% injected dose/g"}, {"measurement": "HSV1-sr39tk/[18F]FHBG combination outperforms TK2-N93D/L-[18F]FMAU combination", "setting": "[7]; tumor to control ratio", "result": "~2", "unit": "fold"}, {"measurement": "accumulation in the liver", "setting": "[8]; 3-h time point", "result": "neither probe showed any accumulation"}, {"measurement": "accumulation in the gallbladder", "setting": "[8]; 3 h after administration", "result": "7.45±5.31", "unit": "% injected dose/g"}, {"measurement": "accumulation in the gallbladder, 18F-FHBG relative to L-18F-FMAU", "setting": "[8]; 3 h after administration", "result": 4, "unit": "times"}, {"measurement": "retention in the abdominal cavity, 18F-FHBG relative to L-18F-FMAU", "setting": "[8]; 3 h after administration", "result": "three times higher"}, {"measurement": "retention in the thoracic cavity", "setting": "[8]; 3 h after administration", "result": "very low retention"}, {"measurement": "signals in the GI tract", "setting": "[8]; 3 h after administration", "result": "detected throughout the GI tract"}, {"measurement": "abdominal background", "setting": "[8]; mice, compared with [18F]FHBG", "result": "high abdominal background"}, {"measurement": "tissues with relatively high signals", "setting": "[9]; 2 h post-administration", "result": "relatively high signals were observed in liver, kidneys, gall bladder, bladder, and the GI tract"}, {"measurement": "tracer background within abdomen and pelvis", "setting": "[9]; whole-body PET/CT, human", "result": "high abdominal background"}]}]}
